Source: paper PMC11077089, “Molecular basis of A. thaliana KEOPS complex in biosynthesizing tRNA t^6A” (Nucleic Acids Research, 2024)

Tests used:
Format in all cases: biochemical
[1] = target: T1, KB (KAE1–BUD32) (Arabidopsis thaliana, UniProt Q94K14); experiment: NADH-coupled ATPase assay; conditions: 2 mM ATP, 5 μM protein, 5 mM MgCl2, pH 7.5, 25°C
T1 construct: gene T1N24.12; pET21a-AtKAE1-BUD32-6His, E. coli; monomer (1:1) by SEC; with tRNA N6-adenosine threonylcarbamoyltransferase KAE1
T1 sequence (Q94K14 1-226): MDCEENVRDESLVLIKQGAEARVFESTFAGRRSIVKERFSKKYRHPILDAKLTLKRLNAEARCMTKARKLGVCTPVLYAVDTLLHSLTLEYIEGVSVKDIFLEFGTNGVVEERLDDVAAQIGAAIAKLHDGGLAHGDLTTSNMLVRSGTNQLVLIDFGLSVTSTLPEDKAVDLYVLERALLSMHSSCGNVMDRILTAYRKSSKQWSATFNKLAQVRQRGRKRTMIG
T1 sequence (O49653 1-353 partner): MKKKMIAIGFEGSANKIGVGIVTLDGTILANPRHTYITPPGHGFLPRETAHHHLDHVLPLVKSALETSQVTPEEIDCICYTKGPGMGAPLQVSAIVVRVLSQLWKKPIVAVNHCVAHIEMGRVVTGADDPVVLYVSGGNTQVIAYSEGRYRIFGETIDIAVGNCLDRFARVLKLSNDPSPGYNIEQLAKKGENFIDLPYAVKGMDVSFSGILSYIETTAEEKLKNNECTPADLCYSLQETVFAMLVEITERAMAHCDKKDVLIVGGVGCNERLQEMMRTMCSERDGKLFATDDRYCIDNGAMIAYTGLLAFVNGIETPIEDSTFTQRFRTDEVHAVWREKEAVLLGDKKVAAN

[2] = target: T2, KBP (KAE1–BUD32–PCC1) (Arabidopsis thaliana, UniProt Q94K14); experiment: NADH-coupled ATPase assay; conditions: 2 mM ATP, 5 μM protein, 5 mM MgCl2, pH 7.5, 25°C
T2 construct: gene T1N24.12; subcomplex without CGI121, recombinant from E. coli; dimer by SEC; with tRNA N6-adenosine threonylcarbamoyltransferase KAE1; EKC/KEOPS complex subunit PCC1
T2 sequence (Q94K14 1-226): T1 sequence (Q94K14 1-226)
T2 sequence (O49653 1-353 partner): T1 sequence (O49653 1-353 partner)
T2 sequence (Q8GWD7 1-96 partner): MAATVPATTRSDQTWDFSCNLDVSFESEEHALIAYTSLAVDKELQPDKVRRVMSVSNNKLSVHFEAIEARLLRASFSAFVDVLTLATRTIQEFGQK

[3] = target: T3, AtYRDC (A. thaliana YRDC) (Arabidopsis thaliana, UniProt F4K0E6); experiment: LC-MS of TC-AMP formation; conditions: 2 μM YRDC, 4 mM L-threonine, 2 mM ATP, 20 mM NaHCO3, 5 mM MgCl2, pH 7.5, 25°C
T3 construct: gene MUP24.1; pET21a-AtYRDC-6His, E. coli, synthetic DNA
T3 sequence (F4K0E6 1-288): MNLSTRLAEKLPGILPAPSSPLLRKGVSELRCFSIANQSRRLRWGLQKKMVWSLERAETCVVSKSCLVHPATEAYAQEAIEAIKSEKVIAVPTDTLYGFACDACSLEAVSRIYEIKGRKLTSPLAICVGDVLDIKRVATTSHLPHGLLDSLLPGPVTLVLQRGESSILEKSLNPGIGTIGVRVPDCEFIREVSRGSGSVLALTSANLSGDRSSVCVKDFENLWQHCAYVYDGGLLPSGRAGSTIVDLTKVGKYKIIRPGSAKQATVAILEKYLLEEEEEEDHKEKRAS

Nc1ncnc2c1ncn2[C@@H]1O[C@H](COP(=O)(O)OP(=O)(O)OP(=O)(O)O)[C@@H](O)[C@H]1O [ATP]
NADH-coupled ATPase assay [1]: efficient conversion of ATP to ADP in the presence of KAE1–BUD32, PCC1–KAE1–BUD32 or KEOPS | NADH-coupled ATPase assay [2]: efficient conversion of ATP to ADP in the presence of KAE1–BUD32, PCC1–KAE1–BUD32 or KEOPS

C[C@@H](O)[C@H](N)C(=O)O [L-threonine]
LC-MS of TC-AMP formation [3]: YRDC is active in catalyzing the formation of threonylcarbamoyl-AMP (TC-AMP)
